As usually defined, the IC50 is the concentration that inhibits the measured activity by half. Low values mean inhibition by little substance, high ones a need for much substance.

Assay [1] concerns SK-OV-3. As to the kind of experiment: Growth inhibition of human SKOV3 cells after 48 hrs by SRB assay. In kind it is functional, cell-based. The following applies: SK-OV-3, 48 h.
The subject of assay [2] is SK-OV-3. The assay is described as follows: Growth inhibition of paclitaxel-resistant human SKOV3 cells after 48 hrs by SRB assay. The following applies: SK-OV-3, 48 h. It is filed as functional, cell-based.
The next assay has as its system PC-3. The assay is described as follows: Growth inhibition of human PC3 cells after 48 hrs by SRB assay. It is filed as functional, cell-based. The following applies: PC-3, 48 h. Background: Sulforhodamine B stains cellular protein and so reports cell mass.
The next assay is filed under the species Bos taurus. As to the kind of experiment: Inhibition of purified bovine tubulin polymerization at 5 uM measured 30 secs intervals for 60 mins by spectrophotometer analysis relative to control.
In a further assay the test system is DLD-1. As to the kind of experiment: Growth inhibition of human DLD1 cells after 48 hrs by SRB assay. It is filed as functional, cell-based. The following applies: DLD-1, 48 h.
Assay [3] relates to SK-OV-3. As to the kind of experiment: Cell cycle arrest in human SKOV3 cells assessed as accumulation at G2/M phase at 5 nM by FACS analysis. In kind it is functional. Background: A flow cytometer gives signals particle by particle.
A further assay deals with HUVEC. The assay is described as follows: Antivascular activity against HUVEC after 24 hrs by xCELLigence assays. It is filed as functional, cell-based. The following applies: Homo sapiens.
Another assay has as its system MCF7. The assay is described as follows: Growth inhibition of human MCF7 cells after 48 hrs by SRB assay. In kind it is functional, cell-based. The following applies: MCF7, 48 h.
In another assay the test system is A549. As to the kind of experiment: Growth inhibition of human A549 cells after 48 hrs by SRB assay. In kind it is functional, cell-based. The following applies: A549, 48 h.
For another assay, the system named is MRC5. As to the kind of experiment: Growth inhibition of human MRC5 cells after 48 hrs by SRB assay. It is filed as cell-based. The following applies: MRC5, 48 h.
The subject of a further assay is HT-29. As to the kind of experiment: Growth inhibition of combretastatin-resistant human HT-29 cells after 48 hrs by SRB assay. It is filed as functional, cell-based. The following applies: HT-29, 48 h.
Assay [4] relates to SK-OV-3. As to the kind of experiment: Cell cycle arrest in human SKOV3 cells assessed as accumulation at sub-G1 phase at 5 nM by FACS analysis. In kind it is functional.
Assay [5] is described as follows: Inhibition of tubulin polymerization.

Where only a bound is given, the exact number is not on record here.

As to `COc1ccc(-c2nnnn2-c2cc(Br)c(OC)c(Br)c2)cc1O`, the half-inhibitory concentration (IC50) in the assay on SK-OV-3 [1] came out at 6.1 nM; in the assay with SK-OV-3 [2] it was 5.6 nM; in the assay on PC-3, 2.9 nM; in the assay on DLD-1, 8.2 nM; in the assay with HUVEC, 6.6 nM; in the assay on MCF7 it was 7 nM. Further, the IC50 in the assay with A549 is 21 nM; in the assay on MRC5, 5.7 nM; with HT-29, over 500 nM. The molecule further had a fold change (FC) in the assay filed under Bos taurus of 1.5. Also, in the assay with SK-OV-3 [3], the Activity was 40%.

Turning to `COc1ccc(/C=C\c2cc(I)c(OC)c(I)c2)cc1O`, the IC50 amounted to 5 nM with SK-OV-3 [1] and 1.9 nM in the assay with HUVEC. The Activity in the assay with SK-OV-3 [3] is recorded as 84%.

As to `COc1ccc(/C=C\c2cc(OC)c(OC)c(OC)c2)cc1O` [COMBRETASTATIN A4], the half-inhibitory concentration (IC50) turned out to be 4.2 nM in the assay on SK-OV-3 [2]; 2.9 nM with PC-3; 3.3 nM in the assay on DLD-1; 3 nM in the assay with MCF7; 7.9 nM with A549; 2.8 nM with MRC5. For the same molecule, the IC50 in the assay with HT-29 came out at 538 nM. The Activity is reported as under 5% in the assay on SK-OV-3 [4] and 31% in the assay on SK-OV-3 [3]. In the assay filed under Bos taurus, this molecule displayed a fold change (FC) of 3.

Turning to `COc1ccc(/C=C\c2cc(Br)c(OC)c(Br)c2)cc1O`, the IC50 worked out at 5 nM in the assay on SK-OV-3 [1] and 3 nM in the assay with HUVEC. The Activity in the assay on SK-OV-3 [3] is 52%.

With `COc1ccc(-c2nnnn2-c2cc(OC)c(OC)c(OC)c2)cc1O`, the concentration for half-maximal inhibition (IC50) amounted to 9.5 nM in the assay with SK-OV-3 [1]; 11 nM in the assay with SK-OV-3 [2]; 9 nM with PC-3; 24 nM with DLD-1; 13.6 nM in the assay with HUVEC; 21 nM in the assay on MCF7. Moreover, the concentration for half-maximal inhibition (IC50) in the assay with A549 was 22 nM; with MRC5, 12 nM; with HT-29 it was over 500 nM. This molecule also showed a fold change (FC) in the assay filed under Bos taurus of 2.9. In addition, the Activity with SK-OV-3 [3] amounted to 25%.

Molecule `COc1ccc(-c2nnnn2-c2cc(OC)c(OC)c(OC)c2)cc1N` came in with an IC50 in [5] of 2000 nM.

On to `COc1ccc(-c2nnnn2-c2cc(I)c(OC)c(I)c2)cc1O`, for which the half-maximal inhibitory concentration (IC50) with SK-OV-3 [1] is 2.6 nM; in the assay on SK-OV-3 [2], 1.4 nM; in the assay with PC-3 it was 0.5 nM; with DLD-1, 2.4 nM; in the assay with HUVEC, 2.4 nM; in the assay with MCF7, 1.9 nM. For the same molecule, the half-inhibitory concentration (IC50) turned out to be 2.8 nM with A549, 2.2 nM in the assay on MRC5 and 513 nM in the assay with HT-29. Further, in the assay filed under Bos taurus, the fold change (FC) came to 1.7. Besides, the Activity with SK-OV-3 [3] came to 89%.
